Target: T1, Proteinase-activated receptor 1 (Homo sapiens, UniProt P25116)
T1 sequence (P25116 whole entry): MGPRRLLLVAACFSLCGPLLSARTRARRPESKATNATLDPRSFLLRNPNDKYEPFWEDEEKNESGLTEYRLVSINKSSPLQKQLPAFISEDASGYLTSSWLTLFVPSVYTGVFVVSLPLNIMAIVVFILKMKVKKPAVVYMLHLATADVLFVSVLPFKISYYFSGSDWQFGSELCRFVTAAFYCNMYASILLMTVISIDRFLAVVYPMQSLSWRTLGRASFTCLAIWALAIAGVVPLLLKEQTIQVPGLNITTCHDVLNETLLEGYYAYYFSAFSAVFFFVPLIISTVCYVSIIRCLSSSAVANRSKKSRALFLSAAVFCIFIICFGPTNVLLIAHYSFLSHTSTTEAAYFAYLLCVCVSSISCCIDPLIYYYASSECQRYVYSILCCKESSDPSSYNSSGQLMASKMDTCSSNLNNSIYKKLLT
Experiment: Binding Assay: The synthesized substances were examined in a PAR1 binding test. This tested whether the substances can inhibit the binding of a radioactively labeled PAR1 agonist known from the literature at the PAR1 receptor (Ho-Sam Ahn, Mol Pharm, 51:350-356, 1997). The human PAR1 receptor was expressed transiently in High Five insect cells. From these cells, after 48 hours, a membrane preparation was produced by standard methods, aliquoted into 10 mM Tris-HCl; 0.3 mM EDTA; 1 mM EGTA; 250 mM sucrose pH 7.5, and stored at -80 C.The substances were preincubated with the membrane at room temperature for 15 minutes, then the radioligand (ALA-(para-F-Phe)-Arg-ChA-homoArg-(3,4-3H-Tyr)-NH2; approx. 40 Ci/mMol) was added. The end concentration of the radioligand in the test buffer (50 mM Tris-HCl; 10 mM MgCl2; 1 mM EGTA; 0.1% BSA; 2% DMSO) was 20 nM, that of the membrane 1 mg/ml. After an incubation time of 60 minutes, 25 uL of the mixture were transferred to a 96-well MultiScreenHTS FB.

CCC(CC)Oc1nn2c(=N)n(CC(=O)c3cc(OC)cc(C(C)(C)C)c3)nc2cc1C
IC50: 951 nM

From ChEMBL document CHEMBL3639062, “Triazolopyridazines as PAR1 inhibitors, production thereof, and use as medicaments” (2015)
